US20080076183A1, “Polysaccharide-peptide conjugates for use as thrombin substrates” (Dade Behring Marburg GmbH, priority 2006, published 2008)
Non-standard residues stand in square brackets, D forms with d. Residues, ends and D or L forms follow the SMILES beside them. *: point of attachment. pNA = O=[N+]([O-])c1ccc(N*)cc1; βAla = NCCC(=O)O

Columns and labels:
[1] = biological target: T1, thrombin (Homo sapiens, UniProt P00734); experiment: Thrombin generation test / determination of the endogenous thrombin potential in defibrinated platelet-poor plasma; format: biochemical; settings: for course of substrate conversion curve after termination of thrombin formation and inhibition: extinction at 405 nm; for reaction kinetics / substrate consumption in a thrombin generation test: compared with H-β-Ala-Gly-Arg-pNA and dextran-β-Ala-Gly-Arg-pNA
Protocol: The thrombin generation was started by addition of 30 μl of Innovin® (reagent comprising recombinant human tissue factor and a mixture of synthetic phospholipids; Dade Behring Marburg GmbH, Germany) and 15 μl of CaCl2 [250 mM]. Measurement was started simultaneously. The change in extinction was monitored for at least 20 minutes in a Behring coagulation system BCS® system (Dade Behring Marburg GmbH, Marburg, Germany) at a wavelength of λ=405 nm (see FIG. 2).
For comparison purposes, the determination of the endogenous thrombin potential was carried out in parallel using the uncoupled substrate H-β-Ala-Gly-Arg-pNA. The substrate solution used for this contained 1 mM H-β-Ala-Gly-Arg-pNA (see FIG. 1).

[2] = biological target: T1, thrombin; experiment: Kinetic properties of thrombin substrates (Km, Vmax, Kcat, Kcat/Km)

Compound: N=C(N)NCCC[C@H](NC(=O)CNC(=O)CCN)C(=O)Nc1ccc([N+](=O)[O-])cc1 [H-β-Ala-Gly-Arg-pNA 2AcOH] (H-[βAla]-Gly-Arg-pNA)
- cleavage by α2-macroglobulin-bound thrombin ([1]; plasma sample): cleavage of the small molecular weight peptide substrate by α2-macroglobulin-bound thrombin
- course of substrate conversion curve after termination of thrombin formation and inhibition ([1]; plasma sample): changes to a uniform, steady and linear increase, instead of reaching a plateau phase
- Km ([2]; Michaelis constant, substrate affinity to thrombin): 2.2 mM
- Vmax ([2]; maximum reaction rate): 16 U
- Kcat ([2]; turnover number): 17.4 s⁻¹

Compound: Dextran-D-CHG-Ala-Arg-pNA
- reaction kinetics / substrate consumption in a thrombin generation test [1]: substrate consumption rapidly occurs

Compound: Dextran-D-CHG-Gly-Arg-pNA
- reaction kinetics / substrate consumption in a thrombin generation test [1]: substrate consumption rapidly occurs

Compound: Dextran-β-Ala-Gly-Arg-pNA
- course of substrate conversion curve after termination of thrombin formation and inhibition ([1]; plasma sample): reaches a plateau phase
